Experimental data from patent publication US6683103B2, “Sulfonamides for treatment of endothelin-mediated disorders” (Texas Biotechnology Corporation, priority 1997, dated 2004).

How the values were obtained:
[1] = Solubility in aqueous media
[2] = Stability of solutions, percent remaining by HPLC; type: physicochemical

Cc1cc2c(cc1CC(=O)c1sccc1S(=O)(=O)Nc1onc(C)c1Cl)OCO2.[Na] [sodium]
solubility compared to the neutral compound [1]: improved solubility over the neutral compound | percent remaining (HPLC) ([2]; 0.49 mg/mL, 1.5% PVP + 3.0% PG, 24 h): 90.0% | percent remaining (HPLC) ([2]; 0.51 mg/mL, 5% dextrose, 24 h): 99.4% | percent remaining (HPLC) ([2]; 0.51 mg/mL, normal saline, 24 h): 96.9% | percent remaining (HPLC) ([2]; 0.57 mg/mL, 0.75% PVP + 1.5% PG, 24 h): 74.4% | percent remaining (HPLC) ([2]; 20 mg/mL, 5% dextrose + 5% PG + citrate buffer, 0.3% w/v (pH 7.5), 26 h (4° C.)): 97.2% | percent remaining (HPLC) ([2]; 20 mg/mL, 5% dextrose + 5% buffer (pH 7.0), 24 h): 92.6% | percent remaining (HPLC) ([2]; 20 mg/mL, 5% dextrose + K-phosphate buffer, 2.5% w/v (pH 6), 24 h): 84.6% | percent remaining (HPLC) ([2]; 20 mg/mL, 5% dextrose + K-phosphate buffer, 2.5% w/v (pH 7), 20 h): 92.6% | percent remaining (HPLC) ([2]; 20 mg/mL, 5% dextrose + K-phosphate buffer, 2.5% w/v (pH 7.5), 24 h): 93.4% | percent remaining (HPLC) ([2]; 20 mg/mL, 5% dextrose + citrate buffer, 0.3% w/v (pH 7.5), 27 h (4° C.)): 96.6% | percent remaining (HPLC) ([2]; 20 mg/mL, 5% dextrose + citrate buffer, 0.3% w/v (pH 8), 21 h): 92.9% | percent remaining (HPLC) ([2]; 20 mg/mL, 5% dextrose, 24 h (13° C.)): 93.7% | percent remaining (HPLC) ([2]; 20 mg/mL, 5% dextrose, 25 h (10° C.)): 93.7% | percent remaining (HPLC) ([2]; 20 mg/mL, 10% dextrose + 10% PG + Na-phosphate buffer, 0.3% w/v (pH 7.5), 24 h): 90.7% | percent remaining (HPLC) ([2]; 20 mg/mL, 10% dextrose, 24 h): 93.4% | percent remaining (HPLC) ([2]; 30 mg/mL, 5% dextrose, 24 h): 92.2% | percent remaining (HPLC) ([2]; 30 mg/mL, 10% dextrose + 10% PG + citrate buffer, 0.3% w/v (pH 7.5), 24 h (4° C.)): 98.0% | percent remaining (HPLC) ([2]; 30 mg/mL, 20% sorbitol, 24 h): 93.2% | percent remaining (HPLC) ([2]; 100 mg/mL, 5% dextrose, 6 h): 93.0% | percent remaining (HPLC) ([2]; 100 mg/mL, 10% dextrose +10% PG + citrate buffer, 0.3% w/v (pH 7.5), 24 h): 94.2% | percent remaining (HPLC) ([2]; 100 mg/mL, 30% sorbitol, 24 h): 93.2% | stability compared to the sodium hydrogen phosphate salt ([2]; certain aqueous formulations): as stable as the sodium hydrogen phosphate salt | percent remaining (HPLC) ([2]; mg/mL not given, 10% dextrose + 10% PG + Na-phosphate buffer, 0.3% w/v (pH 7.5), 24 h (4° C.)): 97.4% | percent remaining (HPLC) ([2]; mg/mL not given, 10% dextrose + 10% PG + Na-phosphate buffer, 0.3% w/v (pH 8), 24 h (4° C.)): 96.4% | percent remaining (HPLC) ([2]; mg/mL not given, 10% dextrose + 10% PG + citrate buffer, 0.3% w/v (pH 7.4), 24 h (4° C.)): 97.6% | percent remaining (HPLC) ([2]; mg/mL not given, 10% dextrose + 10% PG, 24 h (4° C.)): 97.6%
